According to US20250177334A1, “Pharmaceutical Compositions Comprising Phenylsulfonamides, and Their Therapeutic Applications” (Cura Therapeutics, LLC, priority 2018, published 2025):
Where “and” joins values, the source holds several entries; their conditions need not be identical. Equal entries are not always repeated. Where two headings read alike, the source gives them in different places.

Tests used:
[1] = Metabolic stability in fresh human plasma (LC/MS/MS peak heights); type: in vitro ADME; settings: for % Remaining: plasma; for Peak Height: duplicate aliquots
Description: Compounds A1-A3 were independently spiked directly into an individual lot of fresh human plasma, with sodium heparin as the anticoagulant, such that the final assay concentration of each compound was 1.00 μM. After incubation at room temperature for 0, 0.5, 1, 2, and 4 hours, samples were removed and aliquoted for analysis. Valacyclovir was used as a positive control. The plasma samples containing a test compound were processed by protein precipitation.
A primary 1.00 mM stock solution of a test compound was prepared in either acetonitrile or acetonitrile:water (1:1, v/v). A 0.200 mM working stock was made from the primary stock in acetonitrile water (1:1, v/v), which was used in the human plasma stabiltity study. The primary and working stock solutions were stored at −20° C. when not in use. When it was used in the assay, the working stock was kept at room temperature for as short a time as possible.
The human plasma stabiltity study was initiated by adding 5.00 μL of a test compound stock solution to 0.995 mL of human plasma (sodium heparin) in a 1.7-mL snap tube. Time zero points were generated by immediately removing duplicate 50.0 μL aliquots of plasma after initiating each incubation and quenching in 150 μL of methanol. The plasma incubation tubes were capped and remained at room temperature between time points.
After 0.5, 1, 2, and 4 hours of incubation, duplicate 50.0 μL aliquots of plasma were removed and placed into the extraction tubes containing 150 μL of methanol. Each time point was immediately extracted by vortex mixing, centrifuged, and the supernate removed to HPLC vial for analysis. After extraction of all samples, the extracts were analyzed by LC/MS/MS.
LC/MS/MS analysis of the incubation solutions was conducted by initial separation of a test compound peak using chromatography prior to detection by a mass spectrometer. The LC/MS system was comprised of a HPLC coupled with a TQS-Micro or Quattro Premier. The mobile phase was nebulized using heated nitrogen in a Z-spray source/interface set to electrospray in either positive ionization mode or negative ionization mode. The ionized compounds were detected using MS/MS. The data was acquired using MassLynx.
The peak heights for compounds A1-A3 are presented in Table 1, whereas the peak heights for the positive control are shown in Table 2.

[2] = Pharmacokinetic study of compound A2 in rats; type: in vivo
Description: A pharmacokinetic study on compound A2 was carried out in rats.

[3] = Compound A2 concentration in the CSF of rats; type: in vivo
Description: Compound A2 in the CSF of the rats was also analyzed. The results are shown in Table 4 below, wherein BQL stands for below the quantifiable limit of 2.0 ng/mL.

[4] = fresh human plasma, 1.00 μM, room temperature, 0 h
[5] = fresh human plasma, 1.00 μM, room temperature, 0.5 h
[6] = fresh human plasma, 1.00 μM, room temperature, 4 h

SMILES: Cc1ccc(C(F)(F)F)cc1NS(=O)(=O)c1cccc(C(=O)O)c1 [Compound A2, 3-(N-(2-methyl-5-(trifluoromethyl)phenyl)sulfamoyl)benzoic acid]
- Mean Height ([1]; human, 0 h, 1 μM): 12,600
- Mean Height ([1]; human, 0.5 h, 1 μM): 13,300
- Mean Height ([1]; human, 1 h, 1 μM): 13,000
- Mean Height ([1]; human, 2 h, 1 μM): 13,000
- Mean Height ([1]; human, 4 h, 1 μM): 13,100
- % Remaining ([1]; human, 0 h, 1 μM): 100%
- % Remaining ([1]; human, 0.5 h, 1 μM): 106%
- % Remaining ([1]; human, 1 h, 1 μM): 103%
- % Remaining ([1]; human, 2 h, 1 μM): 103%
- % Remaining ([1]; human, 4 h, 1 μM): 104%
- AUCINF/Dose ([2]; IV): 13800
- CL or CL/F ([2]; IV): 1.2 mL/min/kg
- HL ([2]; IV): 5 h
- AUCINF/Dose ([2]; PO): 6420
- HL ([2]; PO): 7 h
- AUC(0-inf) ([2]; rat, in vivo, 1 mg/kg, IV): 13800 ng·h/mL
- AUC(0-t) ([2]; rat, in vivo, 1 mg/kg, IV): 13400 ng·h/mL
- Cmax ([2]; rat, in vivo, 1 mg/kg, IV): 4310 ng/mL
- AUC(0-inf) ([2]; rat, in vivo, 10 mg/kg, PO): 64200 ng·h/mL
- AUC(0-t) ([2]; rat, in vivo, 10 mg/kg, PO): 56200 ng·h/mL
- Cmax ([2]; rat, in vivo, 10 mg/kg, PO): 4590 ng/mL
- Tmax ([2]; rat, in vivo, 10 mg/kg, PO): 4 h
- bioavailability ([2]; rat, in vivo, 10 mg/kg, PO): 45%
- CL/F ([2]; rat, in vivo, 10 mg/kg, PO, read-out: CL or CL/F): 2.6 mL/min/kg
- CSF Concentration ([3]; IV, 0.00 h, individual animals): BQL (BQL stands for below the quantifiable limit of 2.0 ng/mL)
- CSF Concentration ([3]; IV, 0.5 h, individual animals): 65 ng/mL and 0.95 ng/mL and BQL (BQL stands for below the quantifiable limit of 2.0 ng/mL)
- CSF Concentration ([3]; IV, 1.0 h, individual animals): 4.2 ng/mL and 17 ng/mL
- CSF Concentration ([3]; IV, 2.0 h, individual animals): BQL (BQL stands for below the quantifiable limit of 2.0 ng/mL)
- CSF Concentration ([3]; IV, 8.0 h, individual animals): BQL (BQL stands for below the quantifiable limit of 2.0 ng/mL)
- CSF Concentration ([3]; IV, 12 h, individual animals): BQL (BQL stands for below the quantifiable limit of 2.0 ng/mL)
- CSF Concentration ([3]; IV, 24 h, individual animals): BQL (BQL stands for below the quantifiable limit of 2.0 ng/mL)
- CSF Concentration ([3]; PO, 0.00 h, individual animals): BQL (BQL stands for below the quantifiable limit of 2.0 ng/mL)
- CSF Concentration ([3]; PO, 0.5 h, individual animals): 4.3 ng/mL and BQL (BQL stands for below the quantifiable limit of 2.0 ng/mL)
- CSF Concentration ([3]; PO, 1.0 h, individual animals): 5.3 ng/mL and 32 ng/mL and 6.7 ng/mL
- CSF Concentration ([3]; PO, 2.0 h, individual animals): 2.8 ng/mL and 3.1 ng/mL
- CSF Concentration ([3]; PO, 4.0 h, individual animals): 139 ng/mL and 56 ng/mL
- CSF Concentration ([3]; PO, 8.0 h, individual animals): BQL (BQL stands for below the quantifiable limit of 2.0 ng/mL) and 1.6 ng/mL and 20 ng/mL
- CSF Concentration ([3]; PO, 12 h, individual animals): 1.5 ng/mL and 11 ng/mL
- CSF Concentration ([3]; PO, 24 h, individual animals): BQL (BQL stands for below the quantifiable limit of 2.0 ng/mL)
- concentration at 1 h ([3]; rat, CSF, iv, 1 mg/kg, 1.0 h, mean): 11 ng/mL
- concentration at 0.5 h ([3]; rat, CSF, iv, 1 mg/kg, IV, 0.5 h, mean, read-out: CSF Concentration, Mean): 33 ng/mL
- concentration at 2 h ([3]; rat, CSF, iv, 1 mg/kg, IV, 2.0 h, individual animals, read-out: CSF Concentration): 4.9 ng/mL
- concentration at 2 h ([3]; rat, CSF, iv, 1 mg/kg, IV, 2.0 h, mean, read-out: CSF Concentration, Mean): 4.9 ng/mL
- concentration at 4 h ([3]; rat, CSF, iv, 1 mg/kg, IV, 4.0 h, individual animals, read-out: CSF Concentration): 15 ng/mL
- concentration at 4 h ([3]; rat, CSF, iv, 1 mg/kg, IV, 4.0 h, mean, read-out: CSF Concentration, Mean): 15 ng/mL
- concentration at 8 h ([3]; rat, CSF, iv, 1 mg/kg, IV, 8.0 h, individual animals, read-out: CSF Concentration): 1.4 ng/mL
- concentration at 8 h ([3]; rat, CSF, iv, 1 mg/kg, IV, 8.0 h, mean, read-out: CSF Concentration, Mean): 1.4 ng/mL
- concentration at 1 h ([3]; rat, CSF, po, 10 mg/kg, 1.0 h, mean): 15 ng/mL
- concentration at 12 h ([3]; rat, CSF, po, 10 mg/kg, 12 h, mean): 6.5 ng/mL
- concentration at 0.5 h ([3]; rat, CSF, po, 10 mg/kg, PO, 0.5 h, individual animals, read-out: CSF Concentration): 2.7 ng/mL
- concentration at 0.5 h ([3]; rat, CSF, po, 10 mg/kg, PO, 0.5 h, mean, read-out: CSF Concentration, Mean): 3.5 ng/mL
- concentration at 2 h ([3]; rat, CSF, po, 10 mg/kg, PO, 2.0 h, individual animals, read-out: CSF Concentration): 3.6 ng/mL
- concentration at 2 h ([3]; rat, CSF, po, 10 mg/kg, PO, 2.0 h, mean, read-out: CSF Concentration, Mean): 3.2 ng/mL
- concentration at 4 h ([3]; rat, CSF, po, 10 mg/kg, PO, 4.0 h, mean, read-out: CSF Concentration, Mean): 97.4 ng/mL
- concentration at 8 h ([3]; rat, CSF, po, 10 mg/kg, PO, 8.0 h, mean, read-out: CSF Concentration, Mean): 11 ng/mL
- concentration at 24 h ([3]; rat, CSF, po, 10 mg/kg, PO, 24 h, individual animals, read-out: CSF Concentration): 2 ng/mL
- concentration at 24 h ([3]; rat, CSF, po, 10 mg/kg, PO, 24 h, mean, read-out: CSF Concentration, Mean): 2 ng/mL

SMILES: CC(C)[C@H](N)C(=O)OCCOCn1cnc2c(=O)[nH]c(N)nc21 [Valacyclovir, reference compound]
- Mean Height [1, 4]: 21,400
- Peak Height [1, 4]: 21,201 and 21,603
- Mean Height [1, 5]: 20,700
- Peak Height [1, 5]: 21,055 and 20,329
- Mean Height ([1]; fresh human plasma, 1.00 μM, room temperature, 1 h): 20,500
- Peak Height ([1]; fresh human plasma, 1.00 μM, room temperature, 2 h): 19,941 and 19,624
- Mean Height [1, 6]: 17,700
- Peak Height [1, 6]: 17,697 and 17,785
- Mean Height ([1]; human, 2 h, 1 μM): 19,800
- % Remaining ([1]; human, 0 h, 1 μM): 100%
- % Remaining ([1]; human, 0.5 h, 1 μM): 96.7%
- % Remaining ([1]; human, 1 h, 1 μM): 95.8%
- % Remaining ([1]; human, 2 h, 1 μM): 92.5%
- % Remaining ([1]; human, 4 h, 1 μM): 82.7%

SMILES: COc1cc(NS(=O)(=O)c2cccc(C(=O)O)c2)cc(OC)c1 [Compound A3, 3-(N-(3,5-dimethoxyphenyl)sulfamoyl)benzoic acid]
- Mean Height ([1]; human, 0 h, 1 μM): 4,210
- Mean Height ([1]; human, 0.5 h, 1 μM): 4,100
- Mean Height ([1]; human, 1 h, 1 μM): 3,660
- Mean Height ([1]; human, 2 h, 1 μM): 3,440
- Mean Height ([1]; human, 4 h, 1 μM): 3,850
- % Remaining ([1]; human, 0 h, 1 μM): 100%
- % Remaining ([1]; human, 0.5 h, 1 μM): 97%
- % Remaining ([1]; human, 1 h, 1 μM): 87%
- % Remaining ([1]; human, 2 h, 1 μM): 82%
- % Remaining ([1]; human, 4 h, 1 μM): 91%

SMILES: CS(=O)(=O)Nc1cccc(NS(=O)(=O)c2ccc(C(=O)O)cc2)c1 [Compound A1, 4-(N-(3-(methylsulfonamido)phenyl)sulfamoyl)benzoic acid]
- Mean Height ([1]; human, 0 h, 1 μM): 4,250
- Mean Height ([1]; human, 0.5 h, 1 μM): 3,740
- Mean Height ([1]; human, 1 h, 1 μM): 3,680
- Mean Height ([1]; human, 2 h, 1 μM): 3,510
- Mean Height ([1]; human, 4 h, 1 μM): 3,670
- % Remaining ([1]; human, 0 h, 1 μM): 100%
- % Remaining ([1]; human, 0.5 h, 1 μM): 88%
- % Remaining ([1]; human, 1 h, 1 μM): 87%
- % Remaining ([1]; human, 2 h, 1 μM): 83%
- % Remaining ([1]; human, 4 h, 1 μM): 86%
